Test results as given in patent US20250332173A1, “COMPOUNDS AND METHODS FOR MODULATING NUCLEIC ACID SPLICING” (REMIX THERAPEUTICS INC., priority 2021, published 2025).
Where two headings read alike, the source gives them in different places.

Key:
HTT mRNA = assay: RT-qPCR splicing assay, HTT canonical junction (CJ) and alternative junction (AJ) mRNA; assay type: cell-based, human; details: Homo sapiens; for AC50: increase in HTT alternative junction (AJ) mRNA, read-out: HTT AJ AC50
Description: (§1) The expression of a target mRNA was measured by detecting the formation of an exon-exon junction in the canonical transcript (CJ). A compound mediated exon-inclusion event was detected by observing an increase in formation of a new junction with an alternative exon (AJ). Real-time qPCR assays were used to detect these splicing switches and interrogate the potency of various compounds towards different target genes. A high-throughput real time quantitative PCR (RT-qPCR) assay was developed to measure these two isoforms of the mRNA (CJ and AJ) for exemplary genes, such as HTT, SMN2, and MYB, together with a control housekeeping gene, GAPDH or GUSB or PPIA, used for normalization. Briefly, the A673 or K562 cell line was treated with various compounds described herein (e.g., compounds of Formula (I)). After treatment, the levels of the HTT, MYB, or SMN2 mRNA targets were determined from each sample of cell lysate by cDNA synthesis followed by qPCR.
(§2) • Cells-to-CT 1-step kit: ThermoFisher A25602, Cells-to-CT lysis reagent: ThermoFisher 4391851C, TaqMan™ Fast Virus 1-Step Master Mix: ThermoFisher 4444436 • GAPDH: VIC-PL, ThermoFisher 4326317E (Assay: Hs99999905_m1)—used for K562/suspension cell lines • GUSB: VIC-PL, ThermoFisher 4326320E (Assay: Hs99999908_m1)—used for K562/suspension cell lines • PPIA: VIC-PL, ThermoFisher 4326316E (Assay: Hs99999904_m1)—used for A673/adherent cell lines
(§3) The A673 cell line was cultured in DMEM with 10% FBS. Cells were diluted with full growth media and plated in a 96-well plate (15,000 cells in 100 ul media per well). The plate was incubated at 37° C. with 5% CO2 for 24 hours to allow cells to adhere. An 11-point 3-fold serial dilution of the compounds was made in DMSO then diluted in media in an intermediate plate. Compounds were transferred from the intermediate plate to the cell plate with the top dose at a final concentration of 10 uM in the well. Final DMSO concentration was kept at or below 0.25%. The cell plate was returned to the incubator at 37° C. with 5% CO2 for an additional 24 hours.
(§4) The K562 cell line was cultured in IMDM with 10% FBS. For K562, cells were diluted with full growth media and plated in either a 96-well plate (50,000 cells in 50 uL media per well) or a 384-well plate (8,000-40,000 cells in 45 uL media per well). An 11-point 3-fold serial dilution of the compounds were made in DMSO then diluted in media in an intermediate plate. Compound was transferred from the intermediate plate to the cell plate with the top dose at a final concentration of 10 uM in the well. Final DMSO concentration was kept at or below 0.25%. Final volume was 100 uL for 96-well plate and 50 uL for 384-well plate. The cell plate was then placed in an incubator at 37° C. with 5% CO2 for 24 hours.
(§5) The cells were then gently washed with 50 uL-100 uL cold PBS before proceeding to addition of lysis buffer. 30 uL-50 uL of room temperature lysis buffer with DNAse I (and optionally RNAsin) was added to each well. Cells were shaken/mixed thoroughly at room temperature for 5-10 minutes for lysis to take place and then 3 uL-5 uL of room temperature stop solution was added and wells were shaken/mixed again. After 2-5 minutes, the cell lysate plate was transferred to ice for RT-qPCR reaction setup. The lysates could also be frozen at −80° C. for later use.
(§6) In some cases, a direct lysis buffer was used. An appropriate volume of 3× lysis buffer (10 mM Tris, 150 mM NaCl, 1.5%-2.5% Igepal and 0.1-1 U/uL RNAsin, pH 7.4) was directly added to either K562 or A673 cells in media and mixed by pipetting 3 times. The plates were then incubated at room temperature with shaking/rocking for 20-50 minutes to allow for lysis to take place. After this time, the cell lysate plate was transferred to ice to set up for the RT-qPCR reactions. The lysates could also be frozen at −80° C. for later use.

Target C = assay: RT-qPCR splicing assay panel, Target C canonical junction (CJ) mRNA; assay type: cell-based, human; details: Homo sapiens
Description: as §1, §3, §4, §5, §6
(§7) To set up 10 uL RT-qPCR reactions, cell lysates were transferred to 384-well qPCR plates containing the master mix according to the table below. The plates were sealed, gently vortexed, and spun down before the run. The volumes were adjusted accordingly in some instances where the reaction was carried in 20 uL. The table below summarizes the components of the RT-qPCR reactions:
(§8) The RT-qPCR reaction was performed using a QuantStudio (ThermoFisher) under the following fast cycling conditions.

[1] = system: K562 (human chronic myelogenous leukemia) cells; assay: Cell Titer Glo 2.0 cell viability assay; assay type: cell-based; details: Homo sapiens, K562, 72 h, K562 cells, 72 hours, Cell Titer Glo 2.0; read-out: K562 GI50
MYB mRNA = assay: RT-qPCR splicing assay, MYB canonical junction (CJ) and alternative junction (AJ) mRNA; assay type: cell-based, human; details: Homo sapiens; for AC50: increase in MYB alternative junction (AJ) mRNA, read-out: MYB AJ AC50
Description: as §1, §2, §3, §4, §5, §6

SMN2 mRNA = assay: RT-qPCR splicing assay, SMN2 canonical junction (CJ) mRNA; assay type: cell-based, human; details: Homo sapiens; Table 5 panel; canonical junction qPCR; compound concentration having 50% response in CJ decrease; read-out: SMN2 IC50 (decrease in CJ mRNA levels)
Description: as §1, §3, §4, §5, §6, §7, §8

[2] = decrease in HTT canonical junction (CJ) mRNA, RT-qPCR, read-out: HTT CJ IC50
[3] = canonical junction qPCR panel, Table 5, read-out: HTT (decrease in CJ mRNA levels, IC50)
[4] = canonical junction qPCR panel, Table 5, read-out: Target C (decrease in CJ mRNA levels, IC50)
[5] = canonical junction qPCR panel, Table 5, read-out: MYB (decrease in CJ mRNA levels, IC50)
[6] = decrease in MYB canonical junction (CJ) mRNA, RT-qPCR, read-out: MYB CJ IC50
[7] = Table 5 panel, canonical junction qPCR, compound concentration having 50% response in CJ decrease, read-out: HTT IC50 (decrease in CJ mRNA levels)
[8] = Table 5 panel, canonical junction qPCR, compound concentration having 50% response in CJ decrease, read-out: Target C IC50 (decrease in CJ mRNA levels)

| SMILES | IC50 (HTT mRNA; [2]) | IC50 (HTT mRNA; [3]) | IC50 (Target C; [4]) | GI50 [1] | IC50 (MYB mRNA; [5]) | IC50 (MYB mRNA; [6]) | IC50 (HTT mRNA; [7]) | IC50 (Target C; [8]) | IC50 (SMN2 mRNA) | IC50 (MYB mRNA; Table 5 panel, canonical junction qPCR, compound concentration having 50% response in CJ decrease, read-out: MYB IC50 (decrease in CJ mRNA levels)) | AC50 (HTT mRNA; RT-qPCR) | AC50 (MYB mRNA; RT-qPCR) |
| --- | --- | --- | --- | --- | --- | --- | --- | --- | --- | --- | --- | --- |
| Cc1c(O)c(-c2ncc3c(=O)n([C@@H]4CCNC5(CC5)C4)ccc3n2)cc2cn(C)nc12 [Compound 1513] | 1000 to 10000 nM | 100 to 1000 nM | 1000 to 10000 nM | 100 to 1000 nM | 100 to 1000 nM | 100 to 1000 nM |  |  |  |  | 100 to 1000 nM | 100 to 1000 nM |
| Cc1c(O)c(-c2nc(C)c3c(=O)n([C@H]4CCNC5(CC5)C4)ccc3n2)cc2cn(C)nc12 [Compound 1514, 6-[(7S)-4-azaspiro[2.5]octan-7-yl]-2-(6-hydroxy-2,7-dimethyl-indazol-5-yl)-4-methyl-pyrido[4,3-d]pyrimidin-5-one] | 1000 to 10000 nM | > 10000 nM | 1000 to 10000 nM | 100 to 1000 nM | 100 to 1000 nM | 100 to 1000 nM |  |  |  |  | > 10000 nM | 100 to 1000 nM |
| Cc1cn2nc(-c3ccc4c(c3)CCN(C3CCNCC3)C4=O)cc(C)c2n1 [Compound 185] | 1000 to 10000 nM |  |  |  |  | 1000 to 10000 nM | 100 to 1000 nM |  | 100 to 1000 nM | 1000 to 10000 nM | 100 to 1000 nM | 1000 to 10000 nM |
| Cc1cn2nc(-c3ccc4c(=O)n(C5CCOCC5)ncc4c3)cc(C)c2n1 [Compound 275] |  |  |  |  |  |  | > 10000 nM | > 10000 nM |  |  |  |  |
| CC[C@@H]1C[C@@H](n2ncc3cc(-c4cc(C)c5nc(C)cn5n4)ccc3c2=O)CCN1 [Compound 305] | 1000 to 10000 nM |  |  |  |  |  | 100 to 1000 nM | 100 to 1000 nM |  |  | 100 to 1000 nM |  |
| Cc1cn2nc(-c3cc(C)c4c(=O)n(C5CCNC6(CC6)C5)ncc4n3)cc(C)c2n1 (stereo not drawn) [Compound 1552, 6-(4-azaspiro[2.5]octan-7-yl)-2-(2,8-dimethylimidazo[1,2-b]pyridazin-6-yl)-4-methyl-pyrido[2,3-d]pyridazin-5-one] | 100 to 1000 nM | 100 to 1000 nM | 100 to 1000 nM | 100 to 1000 nM | 100 to 1000 nM | 100 to 1000 nM |  |  |  |  | 100 to 1000 nM | 100 to 1000 nM |

Now from value to molecule, other results behind:

| IC50 (HTT mRNA; [2]) | IC50 (HTT mRNA; [3]) | IC50 (Target C; [4]) | GI50 [1] | IC50 (MYB mRNA; [5]) | IC50 (MYB mRNA; [6]) | IC50 (HTT mRNA; [7]) | IC50 (Target C; [8]) | IC50 (SMN2 mRNA) | IC50 (MYB mRNA; Table 5 panel, canonical junction qPCR, compound concentration having 50% response in CJ decrease, read-out: MYB IC50 (decrease in CJ mRNA levels)) | SMILES | AC50 (HTT mRNA; RT-qPCR) | AC50 (MYB mRNA; RT-qPCR) |
| --- | --- | --- | --- | --- | --- | --- | --- | --- | --- | --- | --- | --- |
| 100 to 1000 nM | 100 to 1000 nM | 100 to 1000 nM | 100 to 1000 nM | 100 to 1000 nM | 100 to 1000 nM |  |  |  |  | Cc1cn2cc(-c3ccc4c(=O)n([C@H]5CCNC6(CC6)C5)ccc4n3)cc(F)c2n1 [Compound 1511] | 100 to 1000 nM | 100 to 1000 nM |
| 100 to 1000 nM | 100 to 1000 nM | 100 to 1000 nM | 100 to 1000 nM | < 100 nM | 100 to 1000 nM |  |  |  |  | Cc1c(O)c(-c2ccc3c(=O)n([C@@H]4CCNC5(CC5)C4)ccc3n2)cc2cn(C)nc12 [Compound 1509, 6-[(7R)-4-azaspiro[2.5]octan-7-yl]-2-(6-hydroxy-2,7-dimethyl-indazol-5-yl)-1,6-naphthyridin-5-one] | 100 to 1000 nM | < 100 nM |
| 100 to 1000 nM |  |  |  |  |  | < 100 nM | 100 to 1000 nM |  |  | Cc1cn2nc(-c3ccc4c(=O)n([C@H]5CCN[C@H](C)C5)ncc4c3)cc(C)c2n1 [Compound 273] | < 100 nM |  |
